The record followed here is patent EP0821958A2 (ELI LILLY AND COMPANY, priority 1996, dated 1998).

For assay [1], the target named is muscarinic cholinergic receptors. Kind of assay: 3H-oxotremorine-M binding inhibition (oxotremorine-M versus N-methylscopolamine binding studies). The note with it: inhibition of binding of 3H-oxotremorine-M; read-out: inhibition constant (Ki).
Another assay concerns the target m4 receptors (Homo sapiens, UniProt P08173). Format: cell-based. The conditions noted are these: CHO m4 cells treated with pertussis toxin.
Another assay concerns the target D2 receptor subtype (Homo sapiens, UniProt P14416). Kind of assay: Pharmacological studies at the D2 receptor subtype.

D2 receptor subtype, sequence (P14416 whole entry): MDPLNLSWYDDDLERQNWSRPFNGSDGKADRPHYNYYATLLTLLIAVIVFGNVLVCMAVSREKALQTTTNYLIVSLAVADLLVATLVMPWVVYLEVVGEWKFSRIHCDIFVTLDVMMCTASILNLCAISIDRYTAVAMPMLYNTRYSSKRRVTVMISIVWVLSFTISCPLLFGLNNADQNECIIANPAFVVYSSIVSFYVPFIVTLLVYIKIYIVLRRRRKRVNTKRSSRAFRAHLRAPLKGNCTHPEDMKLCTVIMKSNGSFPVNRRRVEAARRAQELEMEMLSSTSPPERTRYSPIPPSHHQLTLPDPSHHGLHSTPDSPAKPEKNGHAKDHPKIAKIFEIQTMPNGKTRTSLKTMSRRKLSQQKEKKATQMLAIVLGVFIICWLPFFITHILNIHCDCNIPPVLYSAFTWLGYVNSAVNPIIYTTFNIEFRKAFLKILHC
m4 receptors, sequence (P08173 whole entry): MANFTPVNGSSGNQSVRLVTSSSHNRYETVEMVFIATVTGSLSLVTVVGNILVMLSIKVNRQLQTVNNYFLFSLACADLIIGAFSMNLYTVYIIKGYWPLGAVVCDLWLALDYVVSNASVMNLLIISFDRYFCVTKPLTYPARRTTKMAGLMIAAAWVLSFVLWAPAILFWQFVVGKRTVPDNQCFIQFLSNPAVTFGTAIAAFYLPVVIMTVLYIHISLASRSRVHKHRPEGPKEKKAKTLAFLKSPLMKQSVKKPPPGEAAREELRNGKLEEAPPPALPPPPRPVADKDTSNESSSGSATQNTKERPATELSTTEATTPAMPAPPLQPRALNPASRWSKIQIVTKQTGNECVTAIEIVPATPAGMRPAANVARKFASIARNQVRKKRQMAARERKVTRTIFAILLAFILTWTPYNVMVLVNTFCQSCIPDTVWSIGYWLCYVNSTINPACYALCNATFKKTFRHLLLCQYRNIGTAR

What is called Ki is a measure of affinity in units of concentration, obtained from inhibition or displacement. Take `CCCCCCOc1nsnc1C1=CCCN(C)C1` [xanomeline, 3-(4-hexyloxy-1,2,5-thiadiazol-3-yl)-1,2,5,6-tetrahydro-1-methylpyridine]: the Ki in assay [1] was 2 nM. Besides, the “formation of cAMP” value at m4 receptors is “efficaciously and potently stimulated the formation of cAMP”. Moreover, the “activity at the D2 receptor subtype” value on D2 receptor subtype was “active”.
